Measured values from patent US20240108740A1, “THERAPEUTIC COMPOSITIONS INCLUDING SPN10 AND USES THEREOF” (Stealth BioTherapeutics Inc., priority 2022, published 2024).
Residues, ends and D or L forms follow the SMILES beside them.

Experiments:
Sprague-Dawley rats = assay: Example 32: mitochondrial dysfunction in rats fed a high-fat diet; conditions: rat, in vivo
Method: Animals and reagents. Thirty male Sprague-Dawley rats will be obtained from Charles River Laboratory (Wilmington, MA) and housed in a temperature (22° C.) and light controlled room with free access to food and water. Twenty of the animals will be maintained on a high (60%) fat diet (Research Dyets, Bethlehem, PA). Skeletal muscle will be obtained from anesthetized animals (100 mg/kg i.p. ketamine-xylazine). After surgery, animals will be sacrificed by cervical dislocation while anesthetized. Amplex Red Ultra reagent will be obtained from Molecular Probes (Eugene, OR). Stigmatellin and horseradish peroxidase (HRP) will be obtained from Fluka Biochemika (Buchs, Switzerland). All other chemicals will be purchased from Sigma-Aldrich (St. Louis, MO). […]
Mitochondrial respiration and H2O2 production measurements. […] Mitochondrial H2O2 production will be measured at 30° C. during state 4 respiration in buffer Z (10 μg/mL oligomycin) by continuously monitoring oxidation of Amplex Red using a Spex Fluoromax 3 (Jobin Yvon, Ltd.) spectrofluorometer with temperature control and magnetic stirring at >1000 rpm. […] After baseline fluorescence (reactants only) is established, the reaction will be initiated by addition of a permeabilized fiber bundle to 300 μL of buffer Z containing 5 μM Amplex Red and 0.5 U/mL HRP, with succinate at […]. […]

[1] = test system: acute myocardial infarction; assay: Infarct size at revascularization, given with cyclosporine; format: in vivo, human; conditions: along with cyclosporine at the time of reperfusion
Method: Study group. Men and women, 18 years of age or older, who present within 6 hours after the onset of chest pain, who have ST-segment elevation of more than 0.1 mV in two contiguous leads, and for whom the clinical decision is made to treat with percutaneous coronary intervention (PCI) will be eligible for enrollment. Patients are eligible for the study whether they are undergoing primary PCI or rescue PCI. Occlusion of the affected coronary artery (Thrombolysis in Myocardial Infarction (TIMI) flow grade 0) at the time of admission is also a criterion for inclusion. Angiography and Revascularization. […] Either separately or simultaneously, cyclosporine (final concentration, […] will be injected through the catheter. Normal saline (0.9% NaCl) will be used as a control. The patients in the control group receive an equivalent volume of normal saline. Infarct Size. The primary end point will be the size of the infarct as assessed by measurements of cardiac biomarkers. Blood samples are obtained at admission and repeatedly over the next 3 days. The area under the curve (AUC) (expressed in arbitrary units) for creatine kinase and troponin I release (Beckman kit) will be measured in each patient by computerized planimetry. […] The images are analyzed in short axis slices covering the entire left ventricle. […]

## N=C(N)NCCC[C@H](NC(=O)[C@@H](N)Cc1c[nH]c2ccccc12)C(=O)N[C@@H](Cc1c[nH]c2ccccc12)C(=O)N[C@@H](CCCCN)C(N)=O [SPN10, H-L-Trp-L-Arg-L-Trp-L-Lys-NH2] (H-WRWK-NH2)
Sprague-Dawley rats
  mitochondrial dysfunction under a high-fat diet: reduce mitochondrial dysfunction
[1]
  infarct size versus placebo: smaller infarct
